# According to US9242998B2, “Tetracyclic heterocycle compounds and methods of use thereof for the treatment of hepatitis C” (priority 2013, dated 2016):
# Legend:
# HCV genotype 1b replicon = assay: HCV replicon assay, genotype 1b (cell ELISA for replicon-encoded NS3/4A); format: cell-based; conditions: Hepatitis C virus, 96 h, read-out: 1b IC50
# Experimental: (§1) Measurement of inhibition by compounds was performed using the HCV replicon system. Several different replicons encoding different HCV genotypes or mutations were used. In addition, potency measurements were made using different formats of the replicon assay, including different ways of measurements and different plating formats. See Jan M. Vrolijk et al., A replicons-based bioassay for the measurement of interferons in patients with chronic hepatitis C, 110 J. V[…] 201 (2003); Steven S. Carroll et al., Inhibition of Hepatitis C Virus RNA Replication by 2′-Modified Nucleoside Analogs, 278(14) J. BIOLOGICAL CHEMISTRY 11979 (2003). However, the underlying principles are common to all of these determinations, and are outlined below.
# (§2) Stable neomycin phosphotransferase encoding replicons-harboring cell lines were used, so all cell lines were maintained under G418 selection prior to the assay. Potency was determined using a cell ELISA assay with an antibody to the replicons encoded NS3/4a protease. See Caterina Trozzi et al., In Vitro Selection and Characterization of Hepatitis C Virus Serine Protease Variants Resistant to an Active-Site Peptide Inhibitor, 77(6) J. Virol. 3669 (2003). To initiate an assay, replicon cells were plated in the presence of a dilution series of test compound in the absence of G418. Typically, the assays were performed in a 96-well plate formate for manual operation, or a 384-well plate format for automated assay. Replicon cells and compound were incubated for 96 hours. At the end of the assay, cells were washed free of media and compound, and the cells were then lysed. RNA was quantified indirectly through detection of replicon-encoded NS3/4A protein levels, through an ELISA-based assay with an antibody specific for NS3/4A. IC50 determinations were calculated as a percentage of a DMSO control by fitting the data to a four-parameter fit function and the data obtained is provided in the table below.
# (§3) Data for selected compounds of the present invention was obtained for genotypes 1a and 1b using this method and is provided in the table below: […]
# HCV genotype 1a replicon = assay: HCV replicon assay, genotype 1a (cell ELISA for replicon-encoded NS3/4A); format: cell-based; conditions: Hepatitis C virus, 96 h, read-out: 1a IC50
# Experimental: as §1, §2, §3
Structure (SMILES),IC50 (HCV genotype 1b replicon),IC50 (HCV genotype 1a replicon)
"CNC(=O)c1c(-c2ccc(OC)nc2)oc2cc(N(C)S(C)(=O)=O)c(-c3ccc4c(n3)-c3cc5c(F)cccc5n3C(CO)O4)cc12 (single isomer, unassigned) [Compound 21, (S or R)-5-(11-fluoro-6-(hydroxymethyl)-6H-pyrido[2′,3′:5,6][1,3]oxazino[3,4-a]indol-2-yl)-2-(6-methoxypyridin-3-yl)-N-methyl-6-(N-methylmethylsulfonamido)benzofuran-3-carboxamide]",2.8 nM,2.4 nM
"CNC(=O)c1c(C2CC2)oc2cc(N(C)S(C)(=O)=O)c(-c3ccc4c(n3)-c3cc5c(F)cccc5n3C(CO)O4)cc12 (single isomer, unassigned) [Compound 51, (R or S)-2-cyclopropyl-5-(11-fluoro-6-(hydroxymethyl)-6H-pyrido[2′,3′:5,6][1,3]oxazino[3,4-a]indol-2-yl)-N-methyl-6-(N-methylmethylsulfonamido)benzofuran-3-carboxamide]",15 nM,8.3 nM
"CNC(=O)c1c(-c2ccnc(OC)c2)oc2cc(N(C)S(C)(=O)=O)c(-c3ccc4c(n3)-c3cc5c(F)cccc5n3CO4)cc12 [Compound 1, 5-(11-fluoro-6H-pyrido[2′,3′:5,6][1,3]oxazino[3,4-a]indol-2-yl)-2-(2-methoxypyridin-4-yl)-N-methyl-6-(N-methylmethylsulfonamido)benzofuran-3-carboxamide]",14 nM,11 nM
CNC(=O)c1c(C2CC2)oc2cc(N(C)S(C)(=O)=O)c(-c3ccc4c(n3)-c3cc5c(F)cccc5n3CO4)cc12 [Compound 2],12 nM,13 nM
CNC(=O)c1c(C=C(C)C)oc2cc(N(C)S(C)(=O)=O)c(-c3ccc4c(n3)-c3cc5c(F)cccc5n3CO4)cc12 [Compound 3],5.8 nM,3.6 nM
CNC(=O)c1c(-c2ccc(F)nc2)oc2cc(N(C)S(C)(=O)=O)c(-c3ccc4c(n3)-c3cc5c(F)cccc5n3CO4)cc12 [Compound 4],6.1 nM,3 nM
CNC(=O)c1c(-c2cnn(C)c2)oc2cc(N(C)S(C)(=O)=O)c(-c3ccc4c(n3)-c3cc5c(F)cccc5n3CO4)cc12 [Compound 5],7.5 nM,4.4 nM
CCOc1ccc(-c2oc3cc(N(C)S(C)(=O)=O)c(-c4ccc5c(n4)-c4cc6c(F)cccc6n4CO5)cc3c2C(=O)NC)cn1 [Compound 6],12 nM,17 nM
CNC(=O)c1c(-c2ccc(C)nc2)oc2cc(N(C)S(C)(=O)=O)c(-c3ccc4c(n3)-c3cc5c(F)cccc5n3CO4)cc12 [Compound 7],13 nM,8.5 nM
CNC(=O)c1c(-c2ccc(C(F)(F)F)cc2)oc2cc(N(C)S(C)(=O)=O)c(-c3ccc4c(n3)-c3cc5c(F)cccc5n3CO4)cc12 [Compound 8],4.5 nM,6.3 nM
CNC(=O)c1c(-c2ccc(C(F)F)nc2)oc2cc(N(C)S(C)(=O)=O)c(-c3ccc4c(n3)-c3cc5c(F)cccc5n3CO4)cc12 [Compound 9],3.4 nM,2.5 nM
CNC(=O)c1c(-c2ccc(OC(C)C)nc2)oc2cc(N(C)S(C)(=O)=O)c(-c3ccc4c(n3)-c3cc5c(F)cccc5n3CO4)cc12 [Compound 10],13 nM,15 nM
CNC(=O)c1c(-c2ccc(OC)nc2)oc2cc(N(C)S(C)(=O)=O)c(-c3ccc4c(n3)-c3cc5c(F)cccc5n3CO4)cc12 [Compound 11],8.4 nM,7.2 nM
CNC(=O)c1c(-c2ccc(OCC(F)(F)F)nc2)oc2cc(N(C)S(C)(=O)=O)c(-c3ccc4c(n3)-c3cc5c(F)cccc5n3CO4)cc12 [Compound 12],1.8 nM,2.7 nM
CNC(=O)c1c(-c2cnc(OC)nc2)oc2cc(N(C)S(C)(=O)=O)c(-c3ccc4c(n3)-c3cc5c(F)cccc5n3CO4)cc12 [Compound 13],9.4 nM,16 nM
CCn1cc(-c2oc3cc(N(C)S(C)(=O)=O)c(-c4ccc5c(n4)-c4cc6c(F)cccc6n4CO5)cc3c2C(=O)NC)cn1 [Compound 14],18 nM,9.1 nM
